What was measured:
[1] = tested on: HCN1 channel; experiment: Two microelectrode voltage clamp (2MEV) of HCN1 and HCN1 mutants expressed in Xenopus oocytes; type: cell-based, mouse; details: for Effect on channel gating: wild type HCN1, 200 nM; for Effect on channel activation: HCN1-R538E, 30 μM, 60 minutes perfusion
[2] = tested on: HCN2 channel; details: for Effect on channel gating: 200 nM
Experimental: Electrophysiology-General. Recordings were made in either IOP (excised cell-free inside out patch) or 2 MEV (two microelectrode voltage clamp) configurations from Xenopus oocytes 1-5 days after cRNA injection. In both configurations, the Ag—AgCl ground wire(s) were connected to the bath solution by 3M KCl-2% agar salt bridge electrodes placed downstream of, but close to, the oocyte. All recordings were obtained at room temperature (23-25° C.).
Electrophysiology-Two microelectrode voltage-clamp recordings. Data were acquired using a Warner Instruments (Hamden, Conn.) OC-725B amplifier, filtered at 1 kHz then digitized at 2 kHz using an ITC-18 interface and recorded with Pulse software (as described above). For most experiments, oocytes were bathed in a recording solution containing (in mM): 107 KCl, 5 NaCl, 10 HEPES (free acid), and 2 MgCl2, pH 7.4, with NaOH. However, to screen for poorly expressing constructs a recording solution containing (in mM): 112 KCl, 10 HEPES (free acid), and 2 MgCl2, pH 7.4, with KOH, was used to maximize the amplitude of the currents. Under these conditions, tail currents were recorded at the holding potential, −30 mV. The microelectrodes were filled with 3M KCl and had resistances of 0.1-0.5 MΩ (I passing) and 1-4 MΩ (V sensing). An active virtual ground was used to clamp the bath.
Analysis of electrophysiological recordings. “Steady-state” activation curves were determined from the amplitude of tail currents observed after hyperpolarizing voltage steps on return to the indicated potential. For IOP-clamp experiments, the holding potential and the tail potential was −40 mV. For 2 MEV-clamp experiments, the oocytes were held at −30 mV and the tail amplitudes measured at 0 mV. To avert any systematic bias of the determination of the V1/2 in a particular drug and clone combination, at least 10 cells from at least 5 donor frogs were routinely measured with recordings made across a number of weeks.
Tail current amplitudes were measured by averaging the current during the plateau of the tail after allowing the voltage-clamp to settle and the uncompensated linear capacitance to decay and subtracting from this the baseline current recorded 3s later. […] Current values were plotted versus the hyperpolarization step voltage and fitted with the Boltzmann equation: I(V=A1+A2/{1+exp[(V−V1/2)/s]}, where A1 is an offset caused by a nonzero holding current, A2 is the maximal tail current amplitude, V is voltage during the hyperpolarizing test pulse in millivolts, and V1/2 is the activation midpoint voltage. For each experiment, the tail current data were fitted with the above equation. To average the activation data from different experiments, the tail current amplitudes, I(V), from each individual experiment were normalized by first subtracting the derived A1 parameter and then dividing by A2. The normalized data at each voltage were then averaged, and the averaged data were fitted by the Boltzmann equation (with A1 set at 0 and A2 set at 1).

[3] = tested on: DmHCN (HCN channel of Drosophila melanogaster); type: cell-based
[4] = tested on: HCN4 channel; details: for Effect on channel gating: 200 nM
[5] = tested on: plant channel KAT1; details: 200 nM 4βPMA
[6] = tested on: DAG concentration in Xenopus oocytes; details: 60 minute incubation; cited from earlier work
[7] = tested on: HCN2 channel (wild type and CNBD-disabled); experiment: Modulation of HCN2 activation gating by the PTK inhibitor genistein; type: cell-based, mouse
Experimental: (§1) The effect of PTK inhibitor genistein on HCN channel activation was studies using wild type and CNBD-disabled HCN channels. Recordings were made in the presence and absence of genistein.
(§2) Activation of wild type HCN channels and mutant HCN channels with mutation in the C-linker or CNBD domains was recorded in the presence and absence of PTK inhibitor genistein.

[8] = tested on: HCN1 channel (wild type, CNBD-disabled and deletion constructs); experiment: Modulation of HCN1 activation gating by the PTK inhibitor genistein; type: cell-based, mouse
Experimental: as §1, §2
The results in FIG. 18B show the effect of genistein treatment to activation of HCN1-R538E, HCN1-ΔCNBD and HCN1-ΔCterm. Left Panel: Change in V1/2 (V1/2 Final−V1/2 Initial) in control and genistein treated cells (90 μM for 30 min).

CCCCCCCCCCCCCC(=O)O[C@@H]1[C@@H](C)[C@@]2(O)[C@@H](C=C(CO)C[C@@]3(O)C(=O)C(C)=C[C@@H]23)[C@@H]2C(C)(C)[C@]12OC(C)=O [4αPMA]
Effect on channel gating [1]: unaffected | Effect on channel gating [2]: unaffected | Effect on channel gating [3]: unaffected | Effect on channel gating [4]: unaffected

CCCCCCCCCCCCCC(=O)O[C@@H]1[C@@H](C)[C@@]2(O)[C@@H](C=C(CO)C[C@]3(O)C(=O)C(C)=C[C@@H]23)[C@@H]2C(C)(C)[C@]12OC(C)=O [4βPMA, 4-βphorbol-1 2myristate-13-acetate]
ΔV½ CA UNCOUPLED ([1]; HCN1, 30 min in 200 nM 4βPMA): +29 ± 3 | ΔV½ CA UNCOUPLED H^+ UNCOUPLED ([1]; HCN1, 30 min in 200 nM 4βPMA): +32 ± 5 | ΔV½ WILD TYPE ([1]; HCN1, 30 min in 200 nM 4βPMA): +15 ± 3 | 4βPMA facilitation of gating in serine, threonine and tyrosine mutants ([1]; mutants of HCN1-ΔNvΔC, 200 nM 4βPMA, 30 minutes): not affected | Effect on channel gating [1]: facilitated | Effect on channel gating [2]: facilitated | ΔV½ CA UNCOUPLED ([2]; 30 min in 200 nM 4βPMA): +15 ± 2 | ΔV½ CA UNCOUPLED H^+ UNCOUPLED ([2]; 30 min in 200 nM 4βPMA): +26 ± 3 | ΔV½ WILD TYPE ([2]; 30 min in 200 nM 4βPMA): +8 ± 2 | Effect on channel gating [3]: facilitated | ΔV½ WILD TYPE [3]: +9 ± 4 | Effect on channel activation [5]: insensitive | Effect on channel gating [4]: facilitated | ΔV½ WILD TYPE ([4]; 30 min in 200 nM 4βPMA): +17 ± 7

Cc1nc2sccn2c(=O)c1CCN1CCC(=C(c2ccccc2)c2ccc(F)cc2)CC1 [R59022]
Effect on channel activation [1]: facilitates | DAG concentration in Xenopus oocytes [6]: double

O=c1c2ccccc2[nH]c(=S)n1CCN1CCC(=C(c2ccc(F)cc2)c2ccc(F)cc2)CC1 [R59949]
Effect on channel activation [1]: facilitates | DAG concentration in Xenopus oocytes [6]: double

O=c1c(-c2ccc(O)cc2)coc2cc(O)cc(O)c12 [genistein]
Effect on activation curve ([7]; HCN2-R591E (CNBD disabled)): facilitation | Genistein facilitation ([7]; cAMP insensitive HCN2 constructs): independent of the CNBD | Effect on activation curve ([7]; wild type HCN2): inhibition | Effect on activation curve ([8]; HCN1-R538E (CNBD disabled)): robust facilitation | Genistein facilitation, Δ(ΔV1/2), compared with HCN1-R538E ([8]; HCN1-ΔCNBD, 90 μM for 30 min): the same | Genistein sensitivity, Δ(ΔV1/2) ([8]; HCN1-ΔCterm (C-linker deleted), 90 μM for 30 min): insensitive | Effect on activation curve ([8]; wild type HCN1): weak facilitation

Reference: US20070025986A1, “Modulation of HCN channels by second messengers” (priority 2003, published 2007)
